Assay results taken from patent publication US20250230165A1, “HETEROCYCLIC COMPOUNDS FOR USE IN THE TREATMENT OF CANCER” (ARTIOS PHARMA LIMITED, priority 2021, published 2025).

Molecular target: T1, Human Polθ polymerase domain (aa1820-2590) (Homo sapiens, UniProt O75417)
T1 construct: Human Polθ polymerase domain (aa1820-2590) was expressed in E. coli; made in house; host or cells: E. coli
T1 sequence (O75417 1820-2590): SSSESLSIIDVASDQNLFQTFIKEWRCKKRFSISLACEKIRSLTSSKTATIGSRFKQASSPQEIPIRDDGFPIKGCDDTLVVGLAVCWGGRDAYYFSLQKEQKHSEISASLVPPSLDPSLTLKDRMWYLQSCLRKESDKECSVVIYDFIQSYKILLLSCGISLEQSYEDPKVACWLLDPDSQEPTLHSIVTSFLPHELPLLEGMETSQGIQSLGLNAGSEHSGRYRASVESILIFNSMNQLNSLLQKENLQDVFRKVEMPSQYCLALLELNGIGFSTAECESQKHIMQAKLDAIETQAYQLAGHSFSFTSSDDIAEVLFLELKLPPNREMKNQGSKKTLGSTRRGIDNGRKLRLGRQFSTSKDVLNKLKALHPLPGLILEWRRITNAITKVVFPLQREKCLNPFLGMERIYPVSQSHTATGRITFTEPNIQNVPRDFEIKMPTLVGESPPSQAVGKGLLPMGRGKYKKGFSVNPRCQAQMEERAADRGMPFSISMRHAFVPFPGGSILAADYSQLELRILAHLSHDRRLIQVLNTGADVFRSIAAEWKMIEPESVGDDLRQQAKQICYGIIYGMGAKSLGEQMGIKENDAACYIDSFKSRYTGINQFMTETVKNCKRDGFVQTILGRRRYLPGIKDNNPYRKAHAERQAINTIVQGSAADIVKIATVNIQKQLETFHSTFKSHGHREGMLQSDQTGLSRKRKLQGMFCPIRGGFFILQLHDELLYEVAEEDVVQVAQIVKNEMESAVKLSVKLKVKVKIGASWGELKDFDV
Experiment: Polθ Polymerase Domain Kinact/KI Assay (PicoGreen)
Type: biochemical
Conditions: 0.8 nM Polθ, 100 nM DNA substrate, kobs vs [I] fit for 2-step covalent inhibitor
How it was run: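 Time-dependent inhibition was followed with 0.8 nM polymerase domain, 100 nM DNA substrate and […], reactions quenched over 60 min and quantified by PicoGreen. Kinact and KI came from a secondary plot of kobs against inhibitor concentration.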

Row | Structure (SMILES) | Kinact/Kl [M⁻¹ s⁻¹]
1 | C=CC(=O)N1CC(N2CC[C@@H](CN3C[C@H]4CC(=O)N(c5cc(C(F)(F)F)cc(C)n5)[C@@H]4C(=O)N(C)c4cccc(Cl)c43)C2)C1 [Example 219, (3aR,11aS)-5-(((R)-1-(1-acryloylazetidin-3-yl)pyrrolidin-3-yl)methyl)-6-chloro-10-methyl-1-(6-methyl-4-(trifluoromethyl)pyridin-2-yl)-1,3a,4,5,10,11a-hexahydro-2H-benzo[b]pyrrolo [2,3-f][1,4] diazocine-2,11(3H)-dione] | 560000
2 | C=CC(=O)N1CCN(c2cccc(N3C[C@H]4CC(=O)N(c5cc(C(F)(F)F)cc(C)n5)[C@@H]4C(=O)N(C)c4cccc(F)c43)n2)CC1 [Example 55, (3aR,11aS)-5-(6-(4-acryloylpiperazin-1-yl)pyridin-2-yl)-6-fluoro-10-methyl-1-(6-methyl-4-(trifluoromethyl)pyridin-2-yl)-1,3a,4,5,10,11a-hexahydro-2H-benzo[b]pyrrolo[2,3-f][1,4]diazocine-2,11(3H)-dione] | 15000
3 | C=CC(=O)N1CC(N2CC[C@H](CN3C[C@H]4CC(=O)N(c5cc(C(F)(F)F)cc(C)n5)[C@@H]4C(=O)N(C)c4cccc(C)c43)C2)C1 [Example 223, (3aR,11aS)-5-(((S)-1-(1-acryloylazetidin-3-yl)pyrrolidin-3-yl)methyl)-6,10-dimethyl-1-(6-methyl-4-(trifluoromethyl)pyridin-2-yl)-1,3a,4,5,10,11a-hexahydro-2H-benzo[b]pyrrolo [2,3-f][1,4] diazocine-2,11(3H)-dione] | 1.62e+06
4 | C=C(CN(C)C)C(=O)Nc1ccc(CN2C[C@H]3CC(=O)N(c4cc(C(F)(F)F)cc(C)n4)[C@@H]3C(=O)N(C)c3cccc(C)c32)cc1 [Example 209, N-(4-(((3aR,11aS)-6,10-dimethyl-1-(6-methyl-4-(trifluoromethyl)pyridin-2-yl)-2,11-dioxo-1,2,3,3a,4,10,11,11a-octahydro-5H-benzo[b]pyrrolo[2,3-f][1,4]diazocin-5-yl)methyl)phenyl)-2-((dimethylamino)methyl)acrylamide] | 530000
5 | C=C(CN(C)C)C(=O)Nc1ccc(CN2C[C@H]3CC(=O)N(c4cc(C(F)(F)F)cc(C)n4)[C@@H]3C(=O)N(C)c3cccc(C)c32)cc1OC [Example 210, N-(4-(((3aR,11aS)-6,10-dimethyl-1-(6-methyl-4-(trifluoromethyl)pyridin-2-yl)-2,11-dioxo-1,2,3,3a,4,10,11,11a-octahydro-5H-benzo[b]pyrrolo[2,3-f][1,4]diazocin-5-yl)methyl)-2-methoxyphenyl)-2-((dimethylamino)methyl)acrylamide] | 630000
6 | C#CC(=O)N1Cc2nc(CN3C[C@H]4CC(=O)N(c5cc(C(F)(F)F)cc(C)n5)[C@@H]4C(=O)N(C)c4cccc(Cl)c43)cn2C[C@H]1C (racemic) [Example 172b, (3aR,11aS)-6-chloro-10-meth-yl-1-(6-methyl-4-(trifluoro-methyl)pyridin-2-yl)-5-(((R/S)-6-methyl-7-propioloyl-5,6,7,8-tetra-hydroimidazo [1,2-a]pyrazin-2-yl)methyl)-1,3a,4,5,10,11a-hexahydro-2H-benzo[b]pyrrolo [2,3-f][1,4]diazo-cine-2,11(3H)-dione] | 280000
7 | COc1cc(CN2C[C@H]3CC(=O)N(c4cc(C(F)(F)F)cc(C)n4)[C@@H]3C(=O)N(C)c3cccc(C)c32)ccc1NC(=O)/C=C/CN(C)C [Example 208, (E)-N-(4-(((3aR, 11aS)-6,10-dimethyl-1-(6-methyl-4-(trifluoromethyl)pyridin-2-yl)-2,11-dioxo-1,2,3,3a,4,10,11,11a-octahydro-5H-benzo[b]pyrrolo [2,3-f][1,4]diazocin-5-yl)methyl)-2-methoxyphenyl)-4-(dimethylamino) but-2-enamide] | 4.36e+06
8 | C/C=C(\CN(C)C)C(=O)N1CC(OCCCN2C[C@H]3CC(=O)N(c4cc(C(F)(F)F)cc(C)n4)[C@@H]3C(=O)N(C)c3cccc(F)c32)C1 [Example 80, (3aR,11aS)-5-(3-((1-((E)-2-((dimethylamino)methyl)but-2-enoyl)azetidin-3-yl)oxy)propyl)-6-fluoro-10-methyl-1-(6-methyl-4-(trifluoromethyl)pyridin-2-yl)-1,3a,4,5,10,11a-hexahydro-2H-benzo[b]pyrrolo[2,3-f][1,4]diazocine-2,11(3H)-dione] | 810000
9 | C=C(COC(C)=O)C(=O)N1CC(OCCCN2C[C@H]3CC(=O)N(c4cc(C(F)(F)F)cc(C)n4)[C@@H]3C(=O)N(C)c3cccc(Cl)c32)C1 [Example 78, 2-(3-(3-((3aR,11aS)-6-chloro-10-methyl-1-(6-methyl-4-(trifluoromethyl)pyridin-2-yl)-2,11-dioxo-1,2,3,3a,4,10,11,11a-octahydro-5H-benzo[b]pyrrolo[2,3-f][1,4]diazocin-5-yl)propoxy)azetidine-1-carbonyl)allyl Acetate] | 2.06e+06
10 | C=CC(=O)N1CCN(CCN2C[C@H]3CC(=O)N(c4cc(C(F)(F)F)cc(C)n4)[C@@H]3C(=O)N(C)c3cccc(C)c32)CC1 [Example 256, (3aR,11aS)-5-(2-(4-acryloylpiperazin-1-yl)ethyl)-6,10-dimethyl-1-(6-methyl-4-(trifluoromethyl)pyridin-2-yl)-1,3a,4,5,10,11a-hexahydro-2H-benzo[b]pyrrolo[2,3-f][1,4]diazocine-2,11(3H)-dione] | 1.11e+06
11 | C=CC(=O)N1CC2(CN(CCN3C[C@H]4CC(=O)N(c5cc(C(F)(F)F)cc(C)n5)[C@@H]4C(=O)N(C)c4cccc(F)c43)CCN2)C1 [Example 30, (3aR,11aS)-5-(2-(2-acryloyl-2,5,8-triazaspiro[3.5]nonan-8-yl)ethyl)-6-fluoro-10-methyl-1-(6-methyl-4-(trifluoromethyl)pyridin-2-yl)-1,3a,4,5,10,11a-hexahydro-2H-benzo[b]pyrrolo[2,3-f][1,4]diazocine-2,11(3H)-dione] | 690000
12 | C=CC(=O)N1CCN2CCN(CCN3C[C@H]4CC(=O)N(c5cc(C(F)(F)F)cc(C)n5)[C@@H]4C(=O)N(C)c4cccc(F)c43)C[C@H]2C1 (racemic) [Example 23a, (3aR,11aS)-5-(2-((S/R)-8-acryloyloctahydro-2H-pyrazino[1,2-a]pyrazin-2-yl)ethyl)-6-fluoro-10-methyl-1-(6-methyl-4-(trifluoromethyl)pyridin-2-yl)-1,3a,4,5,10,11a-hexahydro-2H-benzo[b]pyrrolo[2,3-f][1,4]diazocine-2, 11(3H)-dione] | 140000
13 | C=CC(=O)N1CC2(CN(CCN3C[C@H]4CC(=O)N(c5cc(C(F)(F)F)cc(C)n5)[C@@H]4C(=O)N(C)c4cccc(F)c43)C[C@H]3CCCN32)C1 [Example 2, (3aR,11aS)-5-(2-((R)-1-Acryloyltetrahydro-1′H-spiro[azetidine-3,4′-pyrrolo[1,2-a]pyrazin]-2′(3′H)-yl)ethyl)-6-fluoro-10-methyl-1-(6-methyl-4-(trifluoromethyl)pyridin-2-yl)-1,3a,4,5,10,11a-hexahydro-2H-benzo[b]pyrrolo[2,3-f][1,4]diazocine-2,11(3H)-dione] | 670000
